{
  "source": "paper doi:10.1101/2025.04.25.650653",
  "about": "“Hierarchical small molecule inhibition of MYST acetyltransferases” (bioRxiv, 2025)",
  "key": {"H3K14Ac (KAT7)": {"test_system": "H3K14Ac (KAT7)", "assay": "Histone biomarker bottom-up LC-MS/MS, MCF-7", "assay_type": "cell-based", "details": "for Ratio, H3_9_17 K9me1K14ac / Ratio, H3_9_17 K9me2K14ac / Ratio, H3_9_17 K14ac: Replicates 1-3"}, "BT-549 cells [1]": {"test_system": "BT-549 cells", "assay": "ATP-based viability assay (CellTiter-Glo)", "assay_type": "cell-based", "details": "Homo sapiens; BT-549, ATP-Glo assay, 72 h, n=4", "from_the_text": "(§1) Figure 6. […] (C) Dependence of breast cancer cell lines on non-MYST KATs (EP300, CREBBP), MYST KATs (KAT6A, KAT6B, KAT7, KAT8, KAT5), and a MYST KAT complex member (BRPF1) derived from on DepMap CRISPR screening data. BT-549 is highlighted in orange. Lower CERES score indicates a greater dependence of the cell line on the specified gene. […] Data is representiative of n=2 biological replicates.\nAnalysis of DepMap-derived CRISPR screening data supports the notion that while breast cancer models vary widely in their requirement for EP300 and CREBBP, BT-549 appears to a fairly independent line. […]\n(§2) (0.01, 0.1, 1, 10, 100 μM) for 48 hours and analyzed by sulforhodamine B assay for growth inhibition as previously described.12-14 o validate the NCI-60 relative activity trends using an orthogonal method, we […]\n(§3) 0.94, 0.47, 0.23, 0 μM) for 96 hours. Experiments were performed in quadruplicate, and cell viability was measured using CellTiter-Glo® Luminescent Cell Viability Assay (Promega, G7572) according to the manufacturer's instructions. Luminescence signals were recorded on a BioTek Synergy 2 plate reader, and results were normalized to vehicle-treated controls (set to 100%). Half-maximal inhibition values (IC₅₀) were determined from nonlinear regression analysis of dose-response curves using GraphPad Prism 9. […]"}, "BT-549 cells [2]": {"test_system": "BT-549 cells", "assay": "NCI-60 cell line screen, sulforhodamine B growth inhibition", "assay_type": "cell-based, human", "details": "BT-549, 10 and 100 μM, 48 h", "from_the_text": "As a comparator we used growth inhibition caused by treatment of cells with CPI-1612,[45], [46] a potent inhibitor of the EP300/CREBBP (KAT3A/B), widely regarded as the master regulator of protein acetylation.\nas §1, §2, §3"}, "H3K9Ac (KAT2A/B)": {"test_system": "H3K9Ac (KAT2A/B)", "assay": "Histone biomarker bottom-up LC-MS/MS, MCF-7", "assay_type": "cell-based", "details": "for Ratio, H3_9_17 K9ac: Replicates 1-3"}, "[3]": {"details": "KAT marker KAT7, PF-9363 0.1 v 30"}, "[4]": {"details": "KAT marker KAT7, PF-9363 (0.1 mM)"}, "[5]": {"details": "KAT marker KAT7, PF-9363 (30 mM)"}},
  "note": "Values joined by “and” are separate entries in the source; they are usually repeats but may differ in a detail not shown here. Equal values may be shown once.",
  "data": [
    {"smiles": "COc1cccc(OC)c1S(=O)(=O)Nc1noc2cc(Cn3cccn3)cc(OC)c12", "note": "[PF-9363]", "values": [
      {"measurement": "IC50", "setting": "H3K14Ac (KAT7); Homo sapiens, MCF7, MCF-7 cells, 24 h", "value": "~1", "unit": "µM"},
      {"measurement": "Fold-change 0.1 v 30, H3_9_17 K9me1K14ac", "setting": "H3K14Ac (KAT7); [3]", "value": 5.55},
      {"measurement": "Fold-change 0.1 v 30, H3_9_17 K9me2K14ac", "setting": "H3K14Ac (KAT7); [3]", "value": 4.54},
      {"measurement": "Fold-change 0.1 v 30, H3_9_17 K14ac", "setting": "H3K14Ac (KAT7); [3]", "value": 4.58},
      {"measurement": "Average ratio, H3_9_17 K9me1K14ac", "setting": "H3K14Ac (KAT7); [4]", "value": 0.0218},
      {"measurement": "Average ratio, H3_9_17 K9me2K14ac", "setting": "H3K14Ac (KAT7); [4]", "value": 0.1048},
      {"measurement": "Average ratio, H3_9_17 K14ac", "setting": "H3K14Ac (KAT7); [4]", "value": 0.0358},
      {"measurement": "Average ratio, H3_9_17 K9me1K14ac", "setting": "H3K14Ac (KAT7); [5]", "value": 0.0039},
      {"measurement": "Average ratio, H3_9_17 K9me2K14ac", "setting": "H3K14Ac (KAT7); [5]", "value": 0.0231},
      {"measurement": "Average ratio, H3_9_17 K14ac", "setting": "H3K14Ac (KAT7); [5]", "value": 0.0078},
      {"measurement": "Ratio, H3_9_17 K9me1K14ac", "setting": "H3K14Ac (KAT7); KAT marker KAT7, dose 0.1", "value": "0.01996 and 0.02377 and 0.02171"},
      {"measurement": "Ratio, H3_9_17 K9me2K14ac", "setting": "H3K14Ac (KAT7); KAT marker KAT7, dose 0.1", "value": "0.087 and 0.123 and 0.1045"},
      {"measurement": "Ratio, H3_9_17 K14ac", "setting": "H3K14Ac (KAT7); KAT marker KAT7, dose 0.1", "value": "0.03031 and 0.04488 and 0.03226"},
      {"measurement": "Ratio, H3_9_17 K9me1K14ac", "setting": "H3K14Ac (KAT7); KAT marker KAT7, dose 1", "value": "0.01133 and 0.012 and 0.01281"},
      {"measurement": "Ratio, H3_9_17 K9me2K14ac", "setting": "H3K14Ac (KAT7); KAT marker KAT7, dose 1", "value": "0.0545 and 0.07102 and 0.04882"},
      {"measurement": "Ratio, H3_9_17 K14ac", "setting": "H3K14Ac (KAT7); KAT marker KAT7, dose 1", "value": "0.02498 and 0.02856 and 0.02464"},
      {"measurement": "Ratio, H3_9_17 K9me1K14ac", "setting": "H3K14Ac (KAT7); KAT marker KAT7, dose 10", "value": "0.004127 and 0.006046 and 0.005821"},
      {"measurement": "Ratio, H3_9_17 K9me2K14ac", "setting": "H3K14Ac (KAT7); KAT marker KAT7, dose 10", "value": "0.02988 and 0.02204 and 0.03567"},
      {"measurement": "Ratio, H3_9_17 K14ac", "setting": "H3K14Ac (KAT7); KAT marker KAT7, dose 10", "value": "0.01535 and 0.01122 and 0.01409"},
      {"measurement": "Ratio, H3_9_17 K9me1K14ac", "setting": "H3K14Ac (KAT7); KAT marker KAT7, dose 30", "value": "0.004797 and 0.003603 and 0.003398"},
      {"measurement": "Ratio, H3_9_17 K9me2K14ac", "setting": "H3K14Ac (KAT7); KAT marker KAT7, dose 30", "value": "0.01983 and 0.02491 and 0.02445"},
      {"measurement": "Ratio, H3_9_17 K14ac", "setting": "H3K14Ac (KAT7); KAT marker KAT7, dose 30", "value": "0.006424 and 0.008372 and 0.008647"},
      {"measurement": "GI50", "setting": "BT-549 cells [1]", "value": "~7", "unit": "µM"},
      {"measurement": "growth inhibition compared with CPI-1612", "setting": "BT-549 cells [2]", "value": "greater growth inhibition"},
      {"measurement": "Fold-change 0.1 v 30, H3_9_17 K9ac", "setting": "H3K9Ac (KAT2A/B); KAT marker KAT2A/B, PF-9363 0.1 v 30", "value": 1.55},
      {"measurement": "Average ratio, H3_9_17 K9ac", "setting": "H3K9Ac (KAT2A/B); KAT marker KAT2A/B, PF-9363 (30 μM)", "value": 0.0036},
      {"measurement": "Average ratio, H3_9_17 K9ac", "setting": "H3K9Ac (KAT2A/B); KAT marker KAT2A/B, PF-9363 (0.1 mM)", "value": 0.0056},
      {"measurement": "Ratio, H3_9_17 K9ac", "setting": "H3K9Ac (KAT2A/B); KAT marker KAT2A/B, dose 0.1", "value": "0.007813 and 0.000147 and 0.0089"},
      {"measurement": "Ratio, H3_9_17 K9ac", "setting": "H3K9Ac (KAT2A/B); KAT marker KAT2A/B, dose 1", "value": "0.005499 and 0.002205 and 0.005001"},
      {"measurement": "Ratio, H3_9_17 K9ac", "setting": "H3K9Ac (KAT2A/B); KAT marker KAT2A/B, dose 10", "value": "0.000496 and 0.002771 and 0.002815"},
      {"measurement": "Ratio, H3_9_17 K9ac", "setting": "H3K9Ac (KAT2A/B); KAT marker KAT2A/B, dose 30", "value": "0.004671 and 0.003182 and 0.003055"},
      {"measurement": "modulation of H3K9Ac", "setting": "H3K9Ac (KAT2A/B); MCF-7 cells, 24 h, any concentration (0.1-30 μM)", "value": "not found to modulate"}
    ]}
  ]
}
